The record followed here is patent US7468270B2, “Probiotic strains, a process for the selection of them, compositions thereof, and their use” (Puleva Biotech, S.A., priority 2003, dated 2008).

This assay concerns Salmonella typhmurium and Escherichia coli. The assay is described as follows: Production of antimicrobial metabolites, agar well diffusion assay. Format: cell-based. The conditions noted are these: dilution of each metabolic acid at pH 4.5; data not shown. As to the method: The probiotic strains of this invention were assessed for their capability to produce antimicrobial metabolites using an agar well diffusion assay. MRS agar plates containing 10^6 cfu/ml of different pathogenic bacteria strain (Salmonella typhmurium and Escherichia coli) were prepared. Wells, with a diameter of 5 mm, where then cut in the agar using a sterile cork-borer. Then, 50 μl of a 2 fold concentrate supernatant of each probiotic strain culture were added to the wells and allowed to diffuse into the agar during a 2 hours preincubation period at 4° C., followed by aerobic incubation of the plates at 37° C. for 16-18 hours. The antimicrobial activity of each supernatant was considered high if the diameter of the inhibition hallo for both pathogenic bacteria strains was >12, moderate between 8 and 12, and slight <8 (FIG. 11)
Moreover, it was also tested if the antimicrobial activity of the supernatants was due to a antimicrobial substance or to the production of metabolic acids. […] It was also tested the antimicrobial capabilities of supernatants obtained from bacterial cultures using glucose or lactose as a carbohydrate source.
A general note: Agar diffusion results depend on both activity and mobility in agar.

As for `CC(=O)O` [acetic], the “Inhibition of growth of Salmonella or E. coli by a dilution of metabolic acid” value is reported as “None of these situations inhibited the growth”. As to `CCCC(=O)O` [butyric, butyric acid], the “Inhibition of growth of Salmonella or E. coli by a dilution of metabolic acid” value is “None of these situations inhibited the growth”.
